Assay results: publication PMC5518293, “An Iterative Module in the Azalomycin F Polyketide Synthase Contains a Switchable Enoylreductase Domain” (Angewandte Chemie (International Ed. in English), 2017)

Molecular target: T1, AzlA (Streptomyces sp. 211726, UniProt A0A1W6GWW1)
T1 construct: recombinant multienzyme, loading module (ACPL) plus extension module 1 (KS-AT-DH-ER-KR-ACP); mutant stated expressed in E. coli BAP1, holo-ACP1
Test: one-pot reconstitution, LC-ESI-HRMS of acyl-ACP1 and of hydrolysed products
Assay type: biochemical
Conditions: extender unit; with Azl4, Azl5, 4-guanidinobutyric acid and added stand-alone holo-ACP1

- one-pot reconstitution, LC-ESI-HRMS of acyl-ACP1 and of hydrolysed products: recruits malonyl‐CoA as extender unit
Compound: CC(C)(COP(=O)(O)OP(=O)(O)OC[C@H]1O[C@@H](n2cnc3c(N)ncnc32)[C@H](O)[C@@H]1OP(=O)(O)O)[C@@H](O)C(=O)NCCC(=O)NCCSC(=O)CC(=O)O [malonyl‐CoA]
